Values after ≈ are worked out from the molar mass of the structure shown. Values joined by “and” are separate entries in the source; they are usually repeats but may differ in a detail not shown here. Equal values may be shown once. Read-outs that look alike come from different tables or passages of the source. Each block holds one compound with its values, some of them ahead of it.
Assays:
[1] = shake-flask; data for previously reported analogs of 1 and 2; cited from earlier work
[2] = aqueous solubility, shake-flask procedure; type: physicochemical; conditions: aqueous buffer, thermodynamic from solid, Britton-Robinson buffer pH 6.5, read-out: Aqueous Solubility S
Method: For the assaying, inhibition constants Ki were determined as before using 4-hydroxyphenylpyruvic acid (HPP) as the substrate (Cisneros, et al., 2016, Bioorg. Med. Chem. Lett. 26:2764-2767). Inhibitory activity is monitored by measuring formation of the borate complex of the enol product at 305 nm using a Tecan Infinite F500 plate reader. Binding constants Kd were also obtained for the new compounds using a fluorescence polarization assay (Cisneros, et al., 2016, J. Am. Chem. Soc. 138:8630-8638). […] Saturated solutions in Britton-Robinson buffer (pH 6.5) are filtered (Acrodisc syringe, 0.2 μm pore) and analyzed by UV-vis spectroscopy (Agilent 8453).

MIF [3] = target: T1, MIF (Homo sapiens, UniProt P14174); assay: MIF tautomerase inhibition assay with 4-hydroxyphenylpyruvic acid (HPP) as substrate; type: biochemical
T1 construct: made in house
T1 sequence (P14174 2-115 limits assumed): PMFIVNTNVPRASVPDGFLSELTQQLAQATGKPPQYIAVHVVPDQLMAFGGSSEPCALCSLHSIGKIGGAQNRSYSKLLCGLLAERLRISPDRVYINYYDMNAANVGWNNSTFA

MIF [4] = target: T1, MIF; assay: fluorescence polarization binding assay

Compound: OCCOc1ccc2nc(-c3cn(-c4ccc(O)cc4)nn3)ccc2c1 [Compound 1b]
- Aqueous Solubility S [1]: 2.6 µg/mL

Compound: NCCOc1ccc2nc(-c3cn(-c4ccc(O)cc4)nn3)ccc2c1 [Compound 1c]
- Aqueous Solubility S [1]: 3.7 µg/mL

Compound: O=C(O)COc1ccc2nc(-c3cn(-c4ccc(O)cc4)nn3)ccc2c1 [Compound 1f]
- Aqueous Solubility S [1]: 365 µg/mL

Compound: O=C(O)COc1ccc2nc(-c3cn(-c4ccc(O)c(F)c4)nn3)ccc2c1 [Compound 2c]
- Aqueous Solubility S [1]: 37.0 µg/mL

- solubility [2]: 288 µg/mL (≈ 755 µM)
Compound: O=C(O)Cn1ccc2ccc(-c3cn(-c4ccc(O)c(F)c4)nn3)nc2c1=O [Compound 4b, 2-(2-(1-(3-fluoro-4-hydroxyphenyl)-1H-1,2,3-triazol-4-yl)-8-oxo-1,7-naphthyridin-7(8H)-yl)acetic acid]

- Ki (MIF [3]; HPP substrate, new naphthyridinones and ISO-1, read-out: Experimental Inhibition Constants Ki): 30 µM and 30.1 µM
- Ki (MIF [3]; spread of nine measurements, read-out: Ki, results of repeated measurements): 21 to 39 µM
- Kd (MIF [4]; fluorescence polarization, new compounds and ISO-1, read-out: Binding Constants Kd): 23 µM and 23.1 µM
- Kd (MIF [4]; spread of four measurements, read-out: Kd, results of repeated measurements): 20 to 30 µM
Compound: methyl 3-(4-hydroxyphenyl)-4,5-dihydroisoxazole-5-carboxylate [ISO-1]
